Data published in ChEMBL document CHEMBL4118101 (Bioorg Med Chem, 2018).
In brackets after ≈: the same amount, converted by molar mass. Activity calls are given as the source filed them. No cut-off for these calls is given here.

Columns and labels:
Cryptococcus neoformans [1] = assay: Antifungal activity against Cryptococcus neoformans isolate CN1 measured after 48 hrs by CLSI M27-A3 protocol based method; assay type: functional; settings: isolate CN1, 48 h
Pichia kudriavzevii = assay: Antifungal activity against Candida krusei ATCC 6258 measured after 48 hrs by CLSI M27-A3 protocol based method; assay type: functional; settings: Pichia kudriavzevii, ATCC 6258, 48 h
[2] = Hemolytic activity in mouse RBC at 31.3 ug/ml after 1 hr relative to control; assay type: ADME, cell-based, Erythrocyte; settings: mouse red blood cells (erythrocytes), at 31.3 µg/mL, read-out: Activity
Aspergillus nidulans [3] = assay: Antifungal activity against Aspergillus nidulans ATCC 38163 measured after 48 hrs in presence of 10% FBS by CLSI M38-A2 protocol based method; assay type: functional; settings: ATCC 38163, 48 h
Candida albicans [4] = assay: Antifungal activity against fluconazole/ITC-resistant Candida albicans ATCC MYA-1003 measured after 48 hrs by CLSI M27-A3 protocol based method; assay type: functional; settings: Candida albicans, ATCC MYA-1003, 48 h; read-out: MIC
Nakaseomyces glabratus [5] = assay: Antifungal activity against Candida glabrata isolate CG3 measured after 48 hrs by CLSI M27-A3 protocol based method; assay type: functional; settings: Nakaseomyces glabratus, 48 h; read-out: MIC
Candida albicans [6] = assay: Antifungal activity against fluconazole/ITC-resistant Candida albicans ATCC 90819 measured after 48 hrs by CLSI M27-A3 protocol based method; assay type: functional; settings: Candida albicans, ATCC 90819, 48 h; read-out: MIC
Candida albicans [7] = assay: Antifungal activity against fluconazole/ITC-susceptible Candida albicans ATCC MYA-2310 measured after 48 hrs by CLSI M27-A3 protocol based method; assay type: functional; settings: Candida albicans, ATCC MYA-2310, 48 h; read-out: MIC
[8] = Hemolytic activity in mouse RBC at 0.48 ug/ml after 1 hr relative to control; assay type: ADME, cell-based, Erythrocyte; settings: mouse red blood cells (erythrocytes), read-out: Activity
Aspergillus terreus = assay: Antifungal activity against Aspergillus terreus ATCC MYA-3633 measured after 48 hrs by CLSI M38-A2 protocol based method; assay type: functional; settings: ATCC MYA-3633, 48 h
[9] = Hemolytic activity in mouse RBC at 3.9 ug/ml after 1 hr relative to control; assay type: ADME, cell-based, Erythrocyte; settings: mouse red blood cells (erythrocytes), read-out: Activity
Candida parapsilosis [10] = assay: Fungistatic activity against Candida parapsilosis ATCC 22019 up to 4 times MIC incubated for 24 hrs by time kill assay; assay type: functional, organism-based
Candida albicans [11] = assay: Antifungal activity against fluconazole/ITC-resistant Candida albicans ATCC MYA-1237 measured after 48 hrs by CLSI M27-A3 protocol based method; assay type: functional; settings: Candida albicans, ATCC MYA-1237, 48 h; read-out: MIC
Cryptococcus neoformans [12] = assay: Antifungal activity against Cryptococcus neoformans isolate CN3 measured after 48 hrs by CLSI M27-A3 protocol based method; assay type: functional; settings: Cryptococcus neoformans, isolate CN3, 48 h; read-out: MIC
Nakaseomyces glabratus [13] = assay: Antifungal activity against Candida glabrata ATCC 2001 measured after 48 hrs by CLSI M27-A3 protocol based method; assay type: functional, CBS 138; settings: Nakaseomyces glabratus, CBS 138, 48 h; read-out: MIC
Candida albicans [14] = assay: Antifungal activity against Candida albicans ATCC 64124 measured after 48 hrs by CLSI M27-A3 protocol based method; assay type: functional; settings: Candida albicans, ATCC 64124, 48 h; read-out: MIC
[15] = Hemolytic activity in mouse RBC at 1.95 ug/ml after 1 hr relative to control; assay type: ADME, cell-based, Erythrocyte; settings: mouse red blood cells (erythrocytes), at 1.95 µg/mL, read-out: Activity
Candida albicans [16] = assay: Antifungal activity against fluconazole/ITC-susceptible Candida albicans ATCC MYA-2876 measured after 48 hrs by CLSI M27-A3 protocol based method; assay type: functional; settings: Candida albicans, ATCC MYA-2876, 48 h
Cryptococcus neoformans [17] = assay: Antifungal activity against Cryptococcus neoformans isolate CN2 measured after 48 hrs by CLSI M27-A3 protocol based method; assay type: functional; settings: Cryptococcus neoformans, isolate CN2, 48 h; read-out: MIC
Candida parapsilosis [18] = assay: Antifungal activity against Candida parapsilosis ATCC 22019 measured after 48 hrs in presence of 10% FBS by CLSI M27-A3 protocol based method; assay type: functional; settings: Lodderomyces parapsilosis, ATCC 22019, 48 h
Nakaseomyces glabratus [19] = assay: Antifungal activity against Candida glabrata isolate CG1 measured after 48 hrs by CLSI M27-A3 protocol based method; assay type: functional; settings: Nakaseomyces glabratus, 48 h; read-out: MIC
Candida parapsilosis [20] = assay: Antifungal activity against Candida parapsilosis isolate CP1 measured after 48 hrs by CLSI M27-A3 protocol based method; assay type: functional; settings: Lodderomyces parapsilosis, isolate CP1, 48 h
Candida parapsilosis [21] = assay: Antifungal activity against Candida parapsilosis isolate CP2 measured after 48 hrs by CLSI M27-A3 protocol based method; assay type: functional; settings: Lodderomyces parapsilosis, isolate CP2, 48 h
Aspergillus flavus = assay: Antifungal activity against Aspergillus flavus ATCC MYA-3631 measured after 48 hrs by CLSI M38-A2 protocol based method; assay type: functional; settings: ATCC MYA-3631, 48 h
Candida parapsilosis [22] = assay: Antifungal activity against Candida parapsilosis ATCC 22019 measured after 48 hrs by CLSI M27-A3 protocol based method; assay type: functional; settings: Lodderomyces parapsilosis, ATCC 22019, 48 h
HEK293 = assay: Cytotoxicity against HEK293 cells at 7.8 ug/ml after 24 hrs by resazurin based assay; assay type: cell-based; settings: human, hek293, 24 h
Candida parapsilosis [23] = assay: Antifungal activity against Candida parapsilosis isolate CP3 measured after 48 hrs by CLSI M27-A3 protocol based method; assay type: functional; settings: Lodderomyces parapsilosis, isolate CP3, 48 h
Candida albicans [24] = assay: Fungistatic activity against Candida albicans ATCC 10231 at 4 times MIC incubated for 24 hrs by time kill assay; assay type: functional, organism-based
Candida albicans [25] = assay: Induction of membrane permeabilization in Candida albicans ATCC 10231 assessed as membrane disruption at 4 times MIC after 1 hr by propidium iodide staining based fluorescence microscopy; assay type: functional, organism-based
[26] = Hemolytic activity in mouse RBC at 7.8 ug/ml after 1 hr relative to control; assay type: ADME, cell-based, Erythrocyte; settings: mouse red blood cells (erythrocytes), read-out: Activity
Nakaseomyces glabratus [27] = assay: Antifungal activity against Candida glabrata isolate CG2 measured after 48 hrs by CLSI M27-A3 protocol based method; assay type: functional; settings: Nakaseomyces glabratus, isolate CG2, 48 h; read-out: MIC
[28] = Hemolytic activity in mouse RBC at 62.5 ug/ml after 1 hr relative to control; assay type: ADME, cell-based, Erythrocyte; settings: mouse red blood cells (erythrocytes), read-out: Activity
Candida albicans [29] = assay: Antifungal activity against Candida albicans ATCC 10231 measured after 48 hrs in presence of 10% FBS by CLSI M27-A3 protocol based method; assay type: functional; settings: Candida albicans, ATCC 10231, 48 h
Candida albicans [30] = assay: Antifungal activity against Candida albicans ATCC 10231 measured after 48 hrs by CLSI M27-A3 protocol based method; assay type: functional; settings: ATCC 10231, 48 h
Aspergillus nidulans [31] = assay: Antifungal activity against Aspergillus nidulans ATCC 38163 measured after 48 hrs by CLSI M38-A2 protocol based method; assay type: functional; settings: ATCC 38163, 48 h
[32] = Hemolytic activity in mouse RBC at […] ug/ml after 1 hr relative to control; assay type: ADME, cell-based, Erythrocyte; settings: mouse red blood cells (erythrocytes), read-out: Activity
A549 = assay: Cytotoxicity against human A549 cells up to 7.8 ug/ml after 24 hrs by resazurin based assay; assay type: cell-based; settings: a549, 24 h
BEAS-2B = assay: Cytotoxicity against human BEAS2B cells up to 7.8 ug/ml after 24 hrs by resazurin based assay; assay type: cell-based

SMILES	MIC (Cryptococcus neoformans [1]) [µM]	MIC (Pichia kudriavzevii) [µM]	hemolysis at 1 h, 31.3 ug/ml [2] [%]	MIC (Candida albicans [4]) [µM]	MIC (Nakaseomyces glabratus [5]) [µM]	MIC (Candida albicans [6]) [µM]	MIC (Candida albicans [7]) [µM]	hemolysis at 1 h, 0.48 ug/ml [8] [%]	MIC (Aspergillus terreus) [µM]	hemolysis at 1 h, 3.9 ug/ml [9] [%]	MIC (Candida albicans [11]) [µM]	MIC (Cryptococcus neoformans [12]) [µM]	MIC (Nakaseomyces glabratus [13]) [µM]	MIC (Candida albicans [14]) [µM]	hemolysis at 1 h, 1.95 ug/ml [15] [%]	MIC (Candida albicans [16]) [µM]	MIC (Cryptococcus neoformans [17]) [µM]	MIC (Nakaseomyces glabratus [19]) [µM]	MIC (Candida parapsilosis [20]) [µM]	MIC (Candida parapsilosis [21]) [µM]	also measured
CCCCCCCCCCNCC(O)(Cn1cncn1)c1ccc(F)cc1F (stereo not given)	0.61 (≈ 0.241 µg/mL)	1.2 (≈ 0.473 µg/mL)	92	19.8 (≈ 7.81 µg/mL)	9.9 (≈ 3.91 µg/mL)	9.9 (≈ 3.91 µg/mL)	19.8 (≈ 7.81 µg/mL)	0	9.9 (≈ 3.91 µg/mL)	3	19.8 (≈ 7.81 µg/mL)	1.2 (≈ 0.473 µg/mL)	1.2 to 2.5 (≈ 0.473 to 0.986 µg/mL)	39.5 (≈ 15.6 µg/mL)	2	9.9 (≈ 3.91 µg/mL)	0.61 (≈ 0.241 µg/mL)	4.9 (≈ 1.93 µg/mL)	0.15 (≈ 0.0592 µg/mL)	0.3 (≈ 0.118 µg/mL)	MIC (Aspergillus nidulans [3]): 1.95 µg/mL; Activity (Candida parapsilosis [10]): Active; MIC (Candida parapsilosis [18]): 0.06 µg/mL; MIC (Aspergillus flavus): 19.8 µM (≈ 7.81 µg/mL); MIC (Candida parapsilosis [22]): 0.08 µM (≈ 0.0316 µg/mL); Activity (HEK293): Non-Toxic; MIC (Candida parapsilosis [23]): 0.61 µM (≈ 0.241 µg/mL); Activity (Candida albicans [24]): Active; Activity (Candida albicans [25]): inactive; hemolysis at 1 h, 7.8 ug/ml [26]: 8%; MIC (Nakaseomyces glabratus [27]): 1.2 µM (≈ 0.473 µg/mL); hemolysis at 1 h, 62.5 ug/ml [28]: 100%; MIC (Candida albicans [29]): 0.48 µg/mL; MIC (Candida albicans [30]): 1.2 µM (≈ 0.473 µg/mL); MIC (Aspergillus nidulans [31]): 2.5 µM (≈ 0.986 µg/mL); hemolysis at 1 h, 0.975 ug/ml [32]: 0%; hemolysis at 1 h, 15.6 ug/ml [32]: 33%
CCCCCCCCCCCCCCCCNCC(O)(Cn1cncn1)c1ccc(F)cc1F (stereo not given)	1 (≈ 0.479 µg/mL)	8.1 (≈ 3.88 µg/mL)	4	> 65.4	16.3 (≈ 7.8 µg/mL)	65.4 (≈ 31.3 µg/mL)	8.1 to 65.4 (≈ 3.88 to 31.3 µg/mL)	4	> 65.4	3	> 65.4	1 (≈ 0.479 µg/mL)	2 to 65.4 (≈ 0.957 to 31.3 µg/mL)	> 65.4	6	65.4 (≈ 31.3 µg/mL)	1 (≈ 0.479 µg/mL)	4.1 (≈ 1.96 µg/mL)	2 (≈ 0.957 µg/mL)	1 (≈ 0.479 µg/mL)	MIC (Aspergillus flavus): > 65.4 µM; MIC (Candida parapsilosis [22]): 1 µM (≈ 0.479 µg/mL); Activity (HEK293): Non-Toxic; MIC (Candida parapsilosis [23]): 2 µM (≈ 0.957 µg/mL); Activity (A549): Non-Toxic; hemolysis at 1 h, 7.8 ug/ml [26]: 4%; MIC (Nakaseomyces glabratus [27]): 2 µM (≈ 0.957 µg/mL); hemolysis at 1 h, 62.5 ug/ml [28]: 8%; MIC (Candida albicans [30]): > 65.4 µM; MIC (Aspergillus nidulans [31]): 8.1 µM (≈ 3.88 µg/mL); hemolysis at 1 h, 0.975 ug/ml [32]: 5%; hemolysis at 1 h, 15.6 ug/ml [32]: 4%; Activity (BEAS-2B): Non-Toxic
